Results taken from patent US12595248B2, “PRMT5 inhibitors” (Merck Sharp & Dohme LLC, priority 2019, dated 2026).
Where two headings read alike, the source gives them in different places.

Legend:
PRMT5 = biological target: T1, PRMT5 (Homo sapiens, UniProt O14744); assay: PRMT5 Cell Target Engagement (TE) Assay; format: cell-based; conditions: MCF-7 cells, treated for 3 days, symmetric dimethylation of arginine (SDMA) by high content imaging
T1 construct: seeded with 4000 MCF-7 cells in 30 μl media; endogenous in cells; host or cells: MCF-7 cells
Description: PRMT5 Cell Target Engagement (TE) Assay
The PRMT5 TE assay is a biomarker assay for identifying compounds that inhibit symmetric dimethylation of arginine (SDMA) of PRMT5 substrates. The following substrates have been reported for PRMT5: histone H2A and H4 R3, Histone H3 R2, Histone H3 R8, spliceosome Sm proteins, ribosomal protein RPS10, p53, FEN1, nucleoplasmin, nucleolin, EGFR and EBNA. The assay focuses on detecting symmetrically dimethylated nuclear proteins using high content imaging technology. Detection of the expression of symmetrically dimethylated nuclear proteins is through a mixture of primary rabbit monoclonal antibodies to SDMA (CST 13222), which in turn recognized by an Alexafluor 488 dye-conjugated anti-rabbit IgG secondary antibody. The IN Cell Analyzer 2200 or Opera-Phenix measures nuclear Alexafluor 488 fluorescent dye intensity that is directly related to the level of expression of symmetrically dimethylated nuclear proteins at the single cell level. Nuclear AF488 dye intensities are compared to the mean value for DMSO treated cells (MIN) to report percent of inhibition for each compound-treated well.
In this assay, the cell potency (EC50) of each compound was determined from a ten point (1:3 serial dilution; top compound concentration of 10000 nM) titration curve using the following outlined procedure. Each well of a BD falcon collagen coated black/clear bottom 384-well plate was seeded with 4000 MCF-7 cells in 30 μl media and allowed to attach for 5 h. Media is ATCC-formulated Eagle's Minimum Essential Medium, Catalog No. 30-2003. To make the complete growth medium, the following components were added to the base medium: 0.01 mg/mL human recombinant insulin; fetal bovine serum to a final concentration of 10%. Additional 30 μl of media containing 2× compounds were added to each well. Cells were treated for 3 days in 37° C. CO2 incubator. On day 3, cells were fixed with Cytofix, permeabilized with 0.4% Triton-X-100/Cytofix, and washed with D-PBS without Ca/Mg. Cells were blocked with Licor Odessey blocking reagent for 1 h at room temperature, followed by incubation with anti-SDMA (1:1000) antibody at 4° C. overnight. 1° antibody was removed, followed by three washings with DPBS without Ca/Mg and 0.05% Tween20. Hoechst (5 μg/mL), Cell Mask deep stain (1:2000) and Alexa488-conjugated goat anti-rabbit IgG (2 μg/mL) was added for 1 h at room temperature. A final washing step (three washes) was performed before sealing plate for imaging on In Cell Analyzer 2200 or Opera-Phenix. Images from analyzer were uploaded to Columbus (at WP or BOS) for image analysis. IC50 values were determined by 4 parameters robust fit of percent fluorescence units vs. (Log10) compound concentrations.

[1] = biological target: T2, PRMT5-MEP50 enzyme complex (Homo sapiens, UniProt O14744); assay: PRMT5-MEP50 Enzyme Methylation Assay (Version B); format: biochemical
T2 construct: Full-length (FL)-PRMT5-MEP50 enzyme complex (recombinant proteins from baculovirus-transfected Sf21 cells: FL-PRMT5; MW=73837 kDa and FL-MEP50; MW=38614); made in house; host or cells: baculovirus-transfected Sf21 cells
Procedure: PRMT5-MEP50 Enzyme Methylation Assay (Version B)
PRMT5-MEP50 biochemical assay is a direct measurement of the methylation activity of the enzyme complex on a short peptide substrate derived from the N-terminus of H4 histone. Methylation experiment was performed with recombinant PRMT5-MEP50 protein complex. The assessment of inhibitory effect (EC50) of small molecules was measured by the effectiveness of the compounds to inhibit this reaction.
In this assay, the potency (EC50) of each compound was determined from a twenty-point (1:2 serial dilution; top compound concentration of 100000 nM) titration curve using the following outlined procedure. To each well of a white ProxiPlus 384 well-plate, 100 nL of compound (1% DMSO in final assay volume of 10 μL) was dispensed, followed by the addition of 8 μL of 1× assay buffer (50 mM Bicine pH 8.0, 1 mM DTT, 0.004% Tween20, 0.01% BSA) containing 0.625 nM of Full-length (FL)-PRMT5-MEP50 enzyme complex (recombinant proteins from baculovirus-transfected Sf21 cells: FL-PRMT5; MW=[…] and FL-MEP50; MW=38614). Plates were sealed and placed in a 37° C. humidified chamber for 30 minutes pre-incubation with compounds. Subsequently, each reaction was initiated by the addition of 2 μL 1× assay buffer containing 375 nM biotinylated H4R3 (MeI) peptide, and 75 μM S-(5′-Adenosyl)-L-Methionine Chloride (SAM). The final reaction in each well of 10 μL consists of 0.5 nM PRMT5-MEP50, 75 nM biotinylated-peptide, and 15 μM SAM. Methylation reactions were allowed to proceed for 150 minutes in a sealed plate at 37° C. Reactions were immediately quenched by the addition of 1 μL of 10% formic acid. Plates were then frozen and shipped to SAMDI™ Tech Inc. to determine the percent conversion from […]. Dose-response curves were generated by plotting percent effect (% product conversion; Y-axis) vs. Log 10 compound concentrations (X-axis). EC50 values were determined by non-linear regression according to models for either sigmoidal (4 parameters) or biphasic (7 parameters) dose-response curves.

[2] = first of two EC50s: 7 parameters biphasic model, read-out: Enzyme Methylation Assay Version B (EC50_1)
[3] = second of two EC50s: 7 parameters biphasic model, read-out: Enzyme Methylation Assay Version B (EC50_2)

T2 sequence (O14744 whole entry): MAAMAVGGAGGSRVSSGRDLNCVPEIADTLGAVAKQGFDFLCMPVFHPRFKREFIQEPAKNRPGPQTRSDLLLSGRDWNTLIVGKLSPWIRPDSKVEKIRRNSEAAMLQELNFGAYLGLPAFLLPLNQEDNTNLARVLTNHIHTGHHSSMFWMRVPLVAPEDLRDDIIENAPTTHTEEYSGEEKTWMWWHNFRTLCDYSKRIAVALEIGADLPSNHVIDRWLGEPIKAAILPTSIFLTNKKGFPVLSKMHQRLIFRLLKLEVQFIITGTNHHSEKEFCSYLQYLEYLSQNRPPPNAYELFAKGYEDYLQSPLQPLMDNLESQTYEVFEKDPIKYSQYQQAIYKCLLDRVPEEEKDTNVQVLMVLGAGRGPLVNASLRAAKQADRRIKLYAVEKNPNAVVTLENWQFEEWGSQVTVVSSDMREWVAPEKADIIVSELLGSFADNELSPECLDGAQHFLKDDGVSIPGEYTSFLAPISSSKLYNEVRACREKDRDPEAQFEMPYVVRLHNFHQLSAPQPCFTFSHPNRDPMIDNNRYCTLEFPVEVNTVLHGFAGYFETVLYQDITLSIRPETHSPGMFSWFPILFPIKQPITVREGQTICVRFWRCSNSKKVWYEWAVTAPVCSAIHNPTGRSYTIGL
T2 sequence (Q9BQA1 whole entry partner): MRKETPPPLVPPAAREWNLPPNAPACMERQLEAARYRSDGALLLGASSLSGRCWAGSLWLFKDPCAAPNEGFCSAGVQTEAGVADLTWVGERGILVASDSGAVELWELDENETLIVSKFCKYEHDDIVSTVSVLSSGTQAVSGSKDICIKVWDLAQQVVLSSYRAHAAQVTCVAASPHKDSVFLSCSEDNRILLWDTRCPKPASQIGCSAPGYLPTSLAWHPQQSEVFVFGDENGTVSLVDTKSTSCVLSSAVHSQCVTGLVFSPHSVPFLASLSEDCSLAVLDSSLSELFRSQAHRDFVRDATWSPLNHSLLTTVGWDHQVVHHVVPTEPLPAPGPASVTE
T1 sequence (O14744 whole entry): as the sequence (O14744 whole entry) above
T1 sequence (Q9BQA1 whole entry partner): as the sequence (Q9BQA1 whole entry partner) above

| EC50 ([1]; only one EC50 shown: 4 parameters single site sigmoidal model, 30 min pre-incubation, read-out: Enzyme Methylation Assay Version B (EC50)) | SMILES | EC50 (PRMT5) | EC50 [1, 2] | EC50 [1, 3] |
| --- | --- | --- | --- | --- |
|  | CCOc1cc(C(=O)N2C3CCC2COC3)ccc1C(=O)N1CC[C@@H](N2CCc3ccccc3C2)[C@H](O)C1 [Example 34, (4-(3-oxa-8-azabicyclo[3.2.1]octane-8-carbonyl)-2-ethoxyphenyl)((3R,4R)-4-(3,4-dihydroisoquinolin-2(1H)-yl)-3-hydroxypiperidin-1-yl)methanone] | 2220 nM | ~38 nM | 20600 nM |
|  | O=C(c1ccc(C(=O)N2C3CCC2COC3)cc1)N1CC[C@H](N2CCc3ccccc3C2)[C@@H](O)C1 [Example 35] | 68 nM | 6.6 nM | 2580 nM |
|  | O=C(c1ccc(C(=O)N2C3CCC2COC3)cc1)N1CC[C@@H](N2CCc3ccccc3C2)[C@H](O)C1 [Example 36, (4-(3-oxa-8-azabicyclo[3.2.1]octane-8-carbonyl)phenyl)((3R,4R)-4-(3,4-dihydroisoquinolin-2(1H)-yl)-3-hydroxypiperidin-1-yl)methanone] | > 10000 nM | ~552 nM | > 100000 nM |
|  | O=C(c1ccc(C(=O)N2C3CCC2COC3)cc1)N1CC[C@H](N2CCc3c(F)cccc3C2)[C@@H](O)C1 [Example 37, (4-(3-oxa-8-azabicyclo[3.2.1]octane-8-carbonyl)phenyl)((3S,4S)-4-(5-fluoro-3,4-dihydroisoquinolin-2(1H)-yl)-3-hydroxypiperidin-1-yl)methanone] | 1850 nM | ~87 nM | 28600 nM |
|  | O=C(c1ccc(C(=O)N2C3CCC2COC3)cc1)N1CC[C@@H](N2CCc3c(F)cccc3C2)[C@H](O)C1 [Example 38, (4-(3-oxa-8-azabicyclo[3.2.1]octane-8-carbonyl)phenyl)((3R,4R)-4-(5-fluoro-3,4-dihydroisoquinolin-2(1H)-yl)-3-hydroxypiperidin-1-yl)methanone] | > 10000 nM | ~402 nM | > 100000 nM |
|  | O=C(c1ccc(C(=O)N2C3CCC2COC3)cc1)N1CC[C@H](N2CCc3cc(F)ccc3C2)[C@@H](O)C1 [Example 39, (4-(3-oxa-8-azabicyclo[3.2.1]octane-8-carbonyl)phenyl)((3S,4S)-4-(6-fluoro-3,4-dihydroisoquinolin-2(1H)-yl)-3-hydroxypiperidin-1-yl)methanone] | > 10000 nM | 31200 nM | > 100000 nM |
|  | O=C(c1ccc(C(=O)N2C3CCC2COC3)cc1)N1CC[C@@H](N2CCc3cc(F)ccc3C2)[C@H](O)C1 [Example 40, (4-(3-oxa-8-azabicyclo[3.2.1]octane-8-carbonyl)phenyl)((3R,4R)-4-(6-fluoro-3,4-dihydroisoquinolin-2(1H)-yl)-3-hydroxypiperidin-1-yl)methanone] | > 10000 nM | 45100 nM | > 100000 nM |
|  | O=C(c1ccc(C(=O)N2C3CCC2COC3)cc1)N1CC[C@H](N2CCc3ccc(F)cc3C2)[C@@H](O)C1 [Example 41, (4-(3-oxa-8-azabicyclo[3.2.1]octane-8-carbonyl)phenyl)((3S,4S)-4-(7-fluoro-3,4-dihydroisoquinolin-2(1H)-yl)-3-hydroxypiperidin-1-yl)methanone] | 1490 nM | 19 nM | 8110 nM |
|  | O=C(c1ccc(C(=O)N2C3CCC2COC3)cc1)N1CC[C@@H](N2CCc3ccc(F)cc3C2)[C@H](O)C1 [Example 42] | > 10000 nM | 12400 nM | > 100000 nM |
|  | O=C(c1ccc(OCC(F)(F)F)nc1)N1CC[C@H](N2CCc3ccccc3C2)[C@@H](O)C1 [Example 43, ((3S,4S)-4-(3,4-dihydroisoquinolin-2(1H)-yl)-3-hydroxypiperidin-1-yl)(6-(2,2,2-trifluoroethoxy)pyridin-3-yl)methanone] | 441 nM | 3.7 nM | 3200 nM |
|  | O=C(c1ccc(OCC(F)(F)F)nc1)N1CC[C@@H](N2CCc3ccccc3C2)[C@H](O)C1 [Example 44, ((3R,4R)-4-(3,4-dihydroisoquinolin-2(1H)-yl)-3-hydroxypiperidin-1-yl)(6-(2,2,2-trifluoroethoxy)pyridin-3-yl)methanone] | > 10000 nM | ~312 nM | > 100000 nM |
|  | CC(=O)N1CCC(Nc2cc(C(=O)N3CC[C@H](N4CCc5ccccc5C4)[C@@H](O)C3)c(Cl)cn2)CC1 [Example 49, 1-{4-[(5-chloro-4-{[(3S,4S)-4-(3,4-dihydroisoquinolin-2(1H)-yl)-3-hydroxypiperidin-1-yl]carbonyl}pyridin-2-yl)amino]piperidin-1-yl}ethanone] | 7.8 nM | 11 nM | 8910 nM |
|  | O=C(c1cc2n(n1)CCN(CC(F)(F)F)C2)N1CC[C@H](N2CCc3ccccc3C2)[C@@H](O)C1 [Example 50, ((3S,4S)-4-(3,4-dihydroisoquinolin-2(1H)-yl)-3-hydroxypiperidin-1-yl)(5-(2,2,2-trifluoroethyl)-4,5,6,7-tetrahydropyrazolo[1,5-a]pyrazin-2-yl)methanone] | 4260 nM | ~76 nM | 33500 nM |
|  | O=C(c1ccc(-c2ncnn2C2CC2)cc1)N1CC[C@H](N2CCc3ccccc3C2)[C@@H](O)C1 [Example 60, (4-(1-cyclopropyl-1H-1,2,4-triazol-5-yl)phenyl)((3S,4S)-4-(3,4-dihydroisoquinolin-2(1H)-yl)-3-hydroxypiperidin-1-yl)methanone] | 435 nM | 14 nM | 4680 nM |
| 2550 nM | O=C(c1ccc(-c2ncnn2C2CC2)cc1)N1CC[C@@H](N2CCc3ccccc3C2)[C@H](O)C1 [Example 61, (4-(1-cyclopropyl-1H-1,2,4-triazol-5-yl)phenyl)((3R,4R)-4-(3,4-dihydroisoquinolin-2(1H)-yl)-3-hydroxypiperidin-1-yl)methanone] | > 10000 nM |  |  |
|  | COc1cnc(NC2CCN(C(C)=O)CC2)cc1C(=O)N1CC[C@H](N2CCc3ccccc3C2)[C@@H](O)C1 [Example 88, 1-(4-((4-((3S,4S)-4-(3,4-dihydroisoquinolin-2(1H)-yl)-3-hydroxypiperidine-1-carbonyl)-5-methoxypyridin-2-yl)amino)piperidin-1-yl)ethan-1-one] | 14 nM | 9.3 nM | 2040 nM |
|  | CC1(C)CC(=O)Nc2cc(C(=O)N3CC[C@@H](N4CCc5ccccc5C4)[C@H](O)C3)ccc21 [Example 95, 7-((3R,4R)-4-(3,4-dihydroisoquinolin-2(1H)-yl)-3-hydroxypiperidine-1-carbonyl)-4,4-dimethyl-3,4-dihydroquinolin-2(1H)-one] | 2710 nM | ~62 nM | 39400 nM |
